As a reminder, the IC50 is the concentration that gives 50% inhibition. Low values mean higher potency, high ones lower potency.

This assay concerns the target CDK2/Cyclin E1 (Homo sapiens (Human), UniProt P24941). Briefly: CDK2/Cyclin E1 HTRF enzyme activity assay. Format: biochemical. The note with it: 1 mM ATP; CDK2/Cyclin E1 0.25 nM; 60 minutes at room temperature. The essentials: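 Full-length GST-CDK2 co-expressed with FLAG-Cyclin E1 (baculovirus), 0.25 nM, reacted with 50 nM ULight-4E-BP1 (Thr37/46) peptide at 50 μM or 1 mM ATP in HEPES pH 7.5 buffer, 60 min, room temperature. EDTA plus Eu-anti-phospho-4E-BP1 antibody stopped the reaction; HTRF read after 1 h; IC50 from three- or four-parameter fits.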
In general terms: TR-FRET usually uses a lanthanide donor and a delayed reading to cut background.

Where only a bound is given, the exact number is not on record here.

The molecule `[2H]C(C)(C)Oc1c(-c2cn[nH]c2)ncc2nc(NC3CCN(S(C)(=O)=O)CC3)nn12` [Example 142, N-(1-(Methylsulfonyl)piperidin-4-yl)-5-((propan-2-yl-2-d)oxy)-6-(1H-pyrazol-4-yl)-[1,2,4]triazolo[1,5-a]pyrazin-2-amine] displayed a concentration for half-maximal inhibition (IC50) of at most 0.02 µM.

Values taken from patent US11851426B2, “Bicyclic amines as CDK2 inhibitors” (Incyte Corporation, priority 2019, dated 2023).
